Measurements published in patent publication US20080234304A1, “N3-Pyridyl-Thiamine And Its Use In Cancer Treatments” (AVEO PHARMACEUTICALS, INC., priority 2004, published 2008).
“Also recorded” adds a separate entry of the source. Read-outs that look alike come from different tables or passages of the source.

Legend:
[1] = biological target: purified apotransketolase; test: inhibition of purified apotransketolase; assay type: biochemical
Description: N3PT is a thiamine (vitamin B1) derivative. Thiamine pyrophosphate (TPP) is a co-factor for catalysis by the enzyme transketolase (as well as for the enzymes kGDH and PDH). […] A standard method for isolating and measuring the IC50 of apotransketolase is described in Konig et al., J. Biol. Chem. 269: 10879-82 (1994).

[2] = brain penetration after a single dose in mice; assay type: in vivo, mouse
Experimental: To assess the ability of N3PT to inhibit transketolase in vivo, a single dose of N3PT was administered to Balb C nude mice (ip, 100 mg/kg), and blood and tissue samples were collected over time and enzymatic activities determined. Blood samples were taken (40 μl whole blood) serially or from sacrificed animals at the end of a study. Tissues, including tumor, brain, heart, kidney, liver, lung, spleen, were taken and flash frozen in liquid nitrogen or on dry ice and stored at −80° C. until assay. Blood was diluted into lysis buffer and dissolved. Tissues were suspended in lysis buffer and homogenized with PowerGen 125 (Fisher Scientific) while being submerged in an ice-water bath.

transketolase = biological target: T1, transketolase (Homo sapiens, UniProt P29401); test: transketolase activity in cell based assay (lysates of N3PT-treated cells, GAPDH-coupled NADH readout)
T1 construct: Cells were lysed by vortexing and cell extracts assayed for transketolase activity; endogenous in cells; other cell lines not specified
T1 sequence (P29401 1-623): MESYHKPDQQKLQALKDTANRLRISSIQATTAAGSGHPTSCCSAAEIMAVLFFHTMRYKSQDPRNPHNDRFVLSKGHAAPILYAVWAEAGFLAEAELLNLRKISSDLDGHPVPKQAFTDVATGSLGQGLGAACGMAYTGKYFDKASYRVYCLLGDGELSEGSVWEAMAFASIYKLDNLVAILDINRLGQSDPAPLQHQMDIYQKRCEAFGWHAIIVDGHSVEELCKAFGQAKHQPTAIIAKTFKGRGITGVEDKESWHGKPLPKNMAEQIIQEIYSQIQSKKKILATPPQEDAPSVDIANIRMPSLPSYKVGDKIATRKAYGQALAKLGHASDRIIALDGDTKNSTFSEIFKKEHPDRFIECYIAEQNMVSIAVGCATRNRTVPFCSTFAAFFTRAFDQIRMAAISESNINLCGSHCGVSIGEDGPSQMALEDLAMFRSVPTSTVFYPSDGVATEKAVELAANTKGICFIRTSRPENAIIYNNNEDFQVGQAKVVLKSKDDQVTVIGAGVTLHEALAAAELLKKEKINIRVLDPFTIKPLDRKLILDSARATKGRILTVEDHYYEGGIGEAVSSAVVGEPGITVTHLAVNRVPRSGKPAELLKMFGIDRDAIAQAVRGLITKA
Experimental: Human carcinoma cell lines, such as, but not restricted to, HCT116, HT1080, DLD-1, Rv22, MIA PA CA-2, HCT-15, and murine cell lines, CT26, 4T1 (all cell lines described are available from the ATCC), were cultured in standard conditions (37 C, 5% CO2) in DMEM media (10% FBS, 1% Penicillin-Streptomycin) and harvested at 60-80% confluency by trypsinization. Approximately 2 million cells were collected in an Eppendorf tube and washed 2 times (2×) with PBS by centrifugation and stored at −20° C. as cell pellets. Ice-cold lysis buffer (1 ml) (20 mM HEPES, pH 7.5, 1 mM EDTA, 0.2 g/l Triton X-100 and 0.2 g/L sodium deoxycholate, supplemented with 1 mM DTT and 1 mM PMSF just before use) was added to each cell pellet. Cells were lysed by vortexing and cell extracts assayed for transketolase activity at pH 7.5, by coupling a subsequent glyceraldehyde-3-phosphate dehydrogenase (GAPDH) reaction and measuring conversion of NAD to NADH (FIG. 1).
The assay was carried out as follows. […] of […] assay buffer containing final concentrations of 50 mM HEPES, 40 mM KCl, 2.5 mM MgCl2, 5 mM NaArsenate, 1 mM NAD, 2 unit/ml glyceraldehydes-3-phosphate dehydrogenase (GAPDH) was added to 80 μl of lysate. Reaction kinetics were monitored on a fluorescent plate reader to allow any possible background activity via GAPDH to burn out. Then 5 ul of substrate mix containing final concentrations of 0.5 mM ribose-5-phosphate and 0.5 mM xylulose-5-phosphate was added to initiate the reaction. The reaction kinetics were monitored using a fluorescent plate reader, and the slope of the initial linear range was recorded as the velocity of the reaction (FU/min).
TK, kGDH and PDH enzymes all utilize thiamine pyrophosphate (TPP) as a co-factor for their catalysis. Conventional cell culture media (e.g., DMEM, RPMI) have high levels of thiamine (12 μM and 3 μM, respectively). […]
Log-phase growing cells were trypsinized and resuspended in TDM. […] TK activities could be measured from ≧5000 cells in most cell lines tested. […]
Enzymatic inhibition was expressed as percent of control cells that were not treated with compounds. […]

IC50 [1]: 21 nM | IC50 (transketolase; extracts from cells incubated with increasing concentrations of N3PT, read-out: IC50 transketolase (selectivity comparison, FIG. 9)): 7 nM | IC50 (transketolase; production of glyceraldehyde-3-phosphate by transketolase, read-out: IC50 transketolase in cell assays): 27 nM
Structure (SMILES): Cc1ccc(C[n+]2csc(CCO)c2C)c(N)n1 [N3PT, 3-[(2-amino-6-methyl-3-pyridinyl)methyl]-5-(2-hydroxyethyl)-4-methyl thiazolium]
brain penetration [2]: little or no significant brain penetration | duration of inhibition of cellular transketolase activity (transketolase; cells treated two days, washed out, TK monitored days 3-7): long lasting; also recorded: persists for several days
